In US20050034187A1, “Modified tet-inducible system for regulation of gene expression in plants” (priority 2000, published 2005):
“Also recorded” adds a separate entry of the source.

Assays:
[1] = tested on: wild type tet Receptor and GUS gene controlled by TripleX promoter (pAC489/pAC499 double transformants); assay: Induction of the tet system in protoplast assays (GUS fluorescent assay); format: cell-based, tobacco; conditions: for magnitude of derepression (induction of GUS): protoplasts, seventh day of cultivation, FIG. 17
Description: Logarithmic scale is used for concentration axis.
Protoplasts were cultivated in the dark at 26° C. […] 100 μl of supernatant was used for the assay.

[2] = tested on: wild type tet Receptor and TripleX-driven GUS gene (pAC489/pAC499 double transformants); assay: Seed germination test: induction of GUS gene in seedlings; format: in vivo, tobacco; conditions: for inducing activity (GUS reporter gene): seed germination test, FIG. 18
[3] = tested on: tetracycline-sensitive bacteria; conditions: concentrations of 0.3 mg/l and lower; according to supplier; cited from earlier work
tobacco seedlings = assay: Visual evaluation of seedlings for toxicity in seed germination test
Text: The purpose of this experiment was to determine the concentration curve for selected analogs. Seeds of homozygous tobacco carrying wild type tet Receptor and TripleX-driven GUS gene (pAC489/pAC499 double transformants) were germinated in presence of several analogs at different concentrations. Seedlings were visually evaluated for toxicity, collected and assayed. Each point on the graph represents an average of three samples.
Seeds of T2 homozygous tobacco carrying wild type tet Receptor and TripleX-driven GUS gene were germinated in the presence of several new analogs at different concentrations. Seedlings were visually evaluated for toxicity, collected and assayed.
The next step in evaluating the analogs was to determine their respective concentration curve. Seeds of homozygous tobacco carrying wild type tet Receptor and TripleX-driven GUS gene (pAC489/pAC499 double transformants) were germinated in the presence of several analogs at different concentrations. Seedlings were visually evaluated for toxicity, collected and assayed.

Mesophyll protoplasts = assay: Toxicity of chemicals to protoplasts (division rate); conditions: FIG. 17
Description: Mesophyll protoplasts were isolated from T2 transgenic tobacco carrying both wild type tet Receptor and GUS gene controlled by TripleX promoter (pAC489/pAC499 double transformants) and were cultivated at a concentration of 5×10^4 cells/ml in liquid KM medium supplemented with tet analogs at 2-5 mg/l in the dark at 26° C. Total and divided protoplasts were counted and GUS fluorescent assays were performed on the seventh day of cultivation. Toxicity of chemicals was evaluated by division rate—the number of divisions divided by the total number of viable cells and multiplied by 100. Each point on the graphs represents an average of three samples.
Protoplasts were cultivated in the dark at 26° C. First divisions were usually observed after 36-60 hours of cultivation; second and sometimes third divisions were visible beginning from the fifth day. Total and divided protoplasts were counted and GUS fluorescent assays performed on the seventh day. In all experiments protoplasts were counted in a fixed volume of 2 mm^3 using hemocytometer (Hausser Scientific Partnership). Toxicity of chemicals was evaluated by division rate—the number of divisions divided by the total number of viable cells and multiplied by 100. […] 100 μl of supernatant was used for the assay. […]

lac repressor = lac repressor (Escherichia coli, UniProt P03023); conditions: Barkley and Bourgeois, 1980; cited from earlier work
cells = conditions: cited from earlier work
[4] = tested on: pAC499 (TripleX/GUS) with pACAG084 ((OCS)3MAS/nTR) or pACAG049 (MAR-(OCS)3MAS/nTR); assay: Time series of GUS induction in whole rooted plants; format: in vivo, tobacco; conditions: roots, tetracycline 2 mg/l, FIG. 16
Description: FIG. 16—Induction of GUS Gene in Double Transformants: Time Series. Time series were run with the best double transformants carrying pAC499 (TripleX/GUS) and either of pACAG084 ((OCS)3MAS/nTR) or pACAG049 (MAR-(OCS)3MAS/nTR). Three weeks-old rooted plants were transferred from agar to magenta boxes with liquid medium and tetracycline 2 mg/l. Tissue samples were regularly taken from roots and assayed for GUS.
Time series were run with the best double transformants carrying pAC499 (TripleX/GUS) and either of pACAG084 ((OCS)3MAS/nTR) or pACAG049 (MAR-(OCS)3MAS/nTR). Three week-old rooted plants were transferred from agar to magenta boxes with liquid medium and tetracycline 2 mg/l. Tissue samples were regularly taken from leaves and roots and assayed for GUS. […] The latter result was consistently observed, as well as, in experiments from the literature.

Chain of lac repressor (P03023 whole entry): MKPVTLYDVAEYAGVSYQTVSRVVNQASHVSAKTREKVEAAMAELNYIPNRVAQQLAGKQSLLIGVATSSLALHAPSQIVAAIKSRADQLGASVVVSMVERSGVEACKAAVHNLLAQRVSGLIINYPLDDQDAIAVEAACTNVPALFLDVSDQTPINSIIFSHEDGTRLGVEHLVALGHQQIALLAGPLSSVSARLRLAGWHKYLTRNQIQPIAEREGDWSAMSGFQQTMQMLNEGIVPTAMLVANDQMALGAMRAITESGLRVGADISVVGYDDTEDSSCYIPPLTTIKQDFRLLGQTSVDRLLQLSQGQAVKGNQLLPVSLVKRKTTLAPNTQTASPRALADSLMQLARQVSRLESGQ

SMILES: Cc1c2c(c(O)c3c(O)cccc13)C(=O)[C@]1(O)C(=O)C(C(N)=O)=C(O)[C@@H](N(C)C)[C@@H]1C2 [1665-56-1, anhydrotetracycline]
- magnitude of derepression (induction of GUS) [1]: not a good derepressing agent; also recorded: able to induce the system
- inducing activity (GUS reporter gene) [2]: negligible induction

SMILES: CN(C)C1C(=O)C(C(N)=O)=C(O)C2(O)C(=O)C3=C(O)c4c(O)cccc4CC3CC12 (centres unmarked) [95702-03-7, 6-deoxy-6-demethyl tetracycline]
- toxicity to tetracycline-sensitive bacteria [3]: not toxic to tetracycline-sensitive bacteria
- toxicity compared with other inducers (tobacco seedlings; concentration curve experiment, FIG. 19): lower toxicity than doxycycline and tetracycline
- toxicity to plant cells (Mesophyll protoplasts): the same magnitude of derepression and toxicity as tetracycline
- inducer potency compared with tetracycline ([1]; concentrations of 0.3 mg/l and lower): more potent inducer at concentrations of 0.3 mg/l and lower
- magnitude of derepression (induction of GUS) [1]: the same magnitude of derepression and toxicity as tetracycline
- inducing activity (GUS reporter gene) [2]: higher than that of the industry standard, doxycycline
- induction of the GUS reporter gene ([2]; summary of in vitro tests of several tetracycline analogs): very good induction

SMILES: CN(C)C1C(=O)C(C(N)=O)=C(O)C2(O)C(=O)C3=C(O)c4c(O)ccc(Br)c4CC3CC12 (centres unmarked) [101057-85-6, 7-bromo-6-deoxy-6-demethyl tetracycline]
- inducing activity (GUS reporter gene) [2]: moderate inducer

SMILES: CC(C)S[C@@H]1O[C@H](CO)[C@H](O)[C@H](O)[C@H]1O [IPTG, isopropyl-B-D-thiogalactopyranoside]
- reduction of the affinity of repressor for the operator (lac repressor): 300 fold
- toxicity of the level required to induce a lac repressor system (cells): cytotoxic to cells

SMILES: CN(C)[C@@H]1C(O)=C(C(N)=O)C(=O)[C@@]2(O)C(O)=C3C(=O)c4c(O)cccc4[C@@](C)(O)[C@H]3C[C@@H]12 [tetracycline]
- toxicity evaluation (growth of plantlets) (tobacco seedlings; concentration of 10 mg/l, FIG. 19 experiment): slightly stunted growth of plantlets
- magnitude of induction at maximum [4]: 3.5 fold
